Patent US7033829B2, “Method to inhibit cell growth using oligonucleotides” (Trustees of Boston University, priority 2000, dated 2006)
Oligonucleotides are written 5' to 3', each unit as a sugar letter and its base; * is a phosphorothioate linkage, no mark a phosphodiester; rarer units and linkages stand in square brackets, end groups in braces. Plain capitals give the bases only. d = 2'-deoxy (DNA); {P} = phosphate

Legend:
SCC12F cells = test: FACS cell cycle analysis of SCC12F cells; type: cell-based, human; conditions: for cells in the S phase / S-phase arrest: 48 hours (control 26%)
Experimental: However, when increasing concentrations of the phosphorothioate 11mer-1 were also added to these cultures, fewer cells became arrested (FIGS. 21A–21G).
Exposure of keratinocytes to UVB irradiation affects the expression of genes involved in cell cycle arrest, DNA repair and cytokine production. Single-stranded oligonucleotides sharing sequence homology with the telomere 3′ overhang, when introduced into cells, mimic these UV effects. To identify other genes that may be similarly modulated, cells of keratinocyte origin (SCC12F; a human epidermal squamous cell carcinoma line provided by Dr. James Rheinwald of Harvard University) were exposed to solar simulated irradiation (SSR) (20 mJ/cm^2, measured at 285±5 nm), to an 11-base oligonucleotide (pGTTAGGGTTAG; SEQ ID NO:5) homologous to the telomere overhang (T-oligo), or to a complementary sequence as control [pCTAACCCTAAC; (SEQ ID NO:9) control oligonucleotide]. […] These are mitochondrial-transcribed genes whose encoded proteins participate in cellular respiration.
In order to determine whether these oligonucleotides similarly affect other human cell types and to investigate the role of p53, we treated a squamous cell carcinoma line (SCC12F) (Rheinwald, J. G., et al., 1983, Human carcinogenesis. pp. 86–96. Academic Press (New York)) that over-expresses a presumptively mutated p53 (Eller, M. S. and B. A. Gilchrest. 2000, Pigment Cell Res. 13: 94–97) and a p53-null osteosarcoma cell line (Saos-2) (Wang, L. H., et al., 1998, Anticancer Res 18: 321–325) with either diluent alone, 11mer-1, 11mer-2 or 11mer-3. Cultures were analyzed by FACS after 48 hours (FIGS. 33A–33H). […] Although the percentage of cells in the S-phase in 11mer-1-treated SCC12F and Saos-2 cells was virtually identical (53±6% and 52±1%, respectively), the G0/G1 and G2/M content of the two cell types were somewhat different. This may reflect differential uptake of the oligonucleotide leading to dose-dependent differences, and/or different pathways acting in these cells to control the cell cycle. No apoptotic response to the oligonucleotides was detected in either cell type within 72 hours.

[1] = system: Apurinic Endonuclease-1 (APE-1); test: APE-1 western blot in fibroblasts; type: cell-based, human; conditions: 100 μM pTpT; 10 μM or 60 μM SEQ ID NO:5; within 24 hours, sustained at least 48 hours
Experimental: Fibroblasts (human newborn) were maintained in 10% CS-supplemented DMEM containing 100 μM pTpT, 10 μM or 60 μM oligonucleotide pGTTAGGGTTAG (SEQ ID NO:5), or diluent as control. Total cellular proteins were harvested at different intervals after supplementation and processed for western blot analysis. Expression of APE-1, the rate-limiting enzyme in repair of 8-oxoguanine (the principal form of oxidative DNA damage) was studied. The blot was incubated with anti APE-1 antibodies (APE/Ref-1 monoclonal IgG2b, Novus Biologicals, Inc. Littleton, Colo.). Within 24 hours of supplementation with pTpT or the 11mer oligonucleotide having nucleotide sequence SEQ ID NO:5, the 37 kDa APE-1 protein was induced in samples stimulated with the oligonucleotides as compared to diluent control. The induction was sustained for at least 48 hours, when the experiment was terminated. Coomassie blue-stained residual bands on the gel confirmed uniform loading of the different lanes.

NBS fibroblasts = test: FACS analysis of NBS fibroblasts; type: cell-based, human; conditions: 40 μM
Experimental: Fibroblasts were obtained from an NBS (Nijmegen breakage syndrome) patient, in which p95/Nbs1 was below the level of detection. Preconfluent cultures or normal (control) fibroblasts and NBS fibroblasts were treated with 40 μM of the oligonucleotides and collected after 48 hours for FACS analysis (FIGS. 34A–34H). The averages and standard deviations were calculated from triplicate cultures of each condition. FACS profiles from one representative experiment of three are shown.

[2] = system: p53, PCNA and the XPA protein; test: Western blot of DNA repair proteins in keratinocytes; type: cell-based, human; conditions: within 2 days of treatment
Experimental: Cells were treated with 100 μM pTpT or an equal volume of diluent alone for 48 hours. Total cellular proteins were collected in a buffer consisting of 0.25 M Tris HCl (pH 7.5), 0.375 M NaCl, 2.5% sodium deoxycholate, 1% Triton X-100, 25 mM MgCl2, 1 mM phenylmethyl sulfonyl fluoride, and 0.1 mg ml aprotinin. Proteins (100 μg per sample) were separated by 7.5–15% SDS-PAGE and transferred to a nitrocellulose membrane (Schleicher & Schuell, Keene, N. H.). After transfer, the gel was stained with Coomassie Blue to verify even loading as visualized by the residual high molecular weight proteins. Membranes were blocked in 0.05% Tween-20/PBS with 5% milk, (Bio-Rad Laboratories, Hercules, Calif.). Antibody reactions were performed with the following antibodies: anti p53 (AB-6), anti PCNA (Ab-2) (Oncogene Science), and anti XPA (FL-273) (Santa Cruz Biotechnology). Sheep anti-mouse Ig linked to horseradish peroxidase (Amersham, Arlington Heights, Ill.) (for p53 and PCNA) and goat anti-rabbit IgG (Bio-Rad)(for XPA) were used as the secondary antibodies. Binding was detected by the ECL detection kit (Amersham).
Western blot analysis was used to examine the effect of pTpT treatment on the expression of selected genes known to be involved in DNA repair.

p53 = p53 (Homo sapiens, UniProt P04637); test: p53 assay using hGH reporter plasmid in keratinocytes; type: cell-based; design: expressed in transfected cells; vector from Dr. Bert Vogelstein; conditions: 100 μM; 24 hours
Sequence of p53 (P04637 whole entry): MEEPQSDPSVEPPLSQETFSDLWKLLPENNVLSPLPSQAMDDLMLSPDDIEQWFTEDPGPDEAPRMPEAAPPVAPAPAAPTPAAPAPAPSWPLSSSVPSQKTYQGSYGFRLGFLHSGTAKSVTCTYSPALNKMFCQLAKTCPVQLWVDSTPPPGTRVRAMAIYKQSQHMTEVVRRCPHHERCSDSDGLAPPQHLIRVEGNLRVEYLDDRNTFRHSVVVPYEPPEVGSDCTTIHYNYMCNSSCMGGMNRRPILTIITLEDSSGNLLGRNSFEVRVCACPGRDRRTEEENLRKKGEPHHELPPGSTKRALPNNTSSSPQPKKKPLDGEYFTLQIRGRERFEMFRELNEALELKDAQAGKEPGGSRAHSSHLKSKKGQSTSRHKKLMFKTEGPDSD
Experimental: Transfection was performed in the presence of 100 μM pTpT (Midland Certified Reagent Company, Midland, Tex.) or an equal volume of diluent. At the same time, the PSV-β-galactosidase control vector (Promega, Madison, Wis.) was co-transfected to determine the transfection efficiency (Norton and Coffin, 1985). Four hours after transfection, the medium was removed and replaced with K-Stim medium with or without 100 μM pTpT. Twenty-four hours after transfection and pTpT treatment, 400 μl of the medium was harvested from each 35 mm culture dish, and 100 μl of ^125I-hGH antibody solution (Nichols Institute Diagnostics, San Juan Capistrano, Calif.) was added to detect secreted hGH as described below. The cells were harvested in a Reporter Lysis Buffer (Promega) using a protocol provided by the manufacturer, and 150 μl of this lysate was used for the β-galactosidase assay using a β-galactosidase assay kit (Promega). Samples from each of triplicate culture dishes were evaluated for hGH and β-galactosidase synthesis.
To confirm the activation of p53 by pTpT in a second assay, a reporter plasmid expressing the human growth hormone (hGH) gene under the influence of a p53 inducible promoter was employed. Activation of p53 increases its binding to the consensus sequence in the plasmid, leading to transcription of the hGH coding sequence and ultimately to secretion of hGH into the medium.

Substance	cells in the S phase / S-phase arrest (SCC12F cells)	cells in the S-phase (SCC12F cells; 40 μM, 48 hours)	cells arrested in the S-phase (SCC12F cells; Example 27 (control cells <23%))	APE-1 protein [1]	proliferation compared to diluent-treated NBS cells (NBS fibroblasts)	increase in the number of S-phase cells compared to diluent (NBS fibroblasts; 48 hours, not statistically significant (p<0.08))	up-regulation of levels of p53, PCNA and XPA protein [2]	increase in hGH secretion compared to diluent-treated cells (p53)
11mer-1-S: phosphorothioate 11mer-1 (dG*dT*dT*dA*dG*dG*dG*dT*dT*dA*dG; further chemistry not fully specified)	did not induce the S-phase arrest	–	–	–	–	–	–	–
pGTTAGGGTTAG (DNA {P}-dGdTdTdAdGdGdGdTdTdAdG) [SEQ ID NO: 5]	Forty-three precent	53±6%	> 43%	induced	minimally affected	8%	–	–
thymidine dinucleotide [pTpT]	–	–	–	induced	–	–	2 to 3 fold	45%±25%
